Source: ChEMBL document CHEMBL4699474, “Dimeric Tetrahydroanthracene Regioisomers and Their Monomeric Precursor Produced by Streptomyces fumigatiscleroticus HDN10255” (J Nat Prod, 2020)
Where a name gives a salt, the structure may show the parent alone.

Experiments:
Format in all cases: functional, cell-based
HCT-116 = assay: Cytotoxicity against human HCT-116 cells assessed as reduction in cell viability after 48 hrs by SRB assay; settings: HCT-116, 48 h
HeLa = assay: Cytotoxicity against human HeLa cells assessed as reduction in cell viability after 48 hrs by SRB assay
K562 = assay: Cytotoxicity against human K562 cells assessed as reduction in cell viability after 48 hrs by MTT assay; settings: K562, 48 h
HL-60 = assay: Cytotoxicity against human HL-60 cells assessed as reduction in cell viability after 48 hrs by MTT assay; settings: HL-60, 48 h

Row | SMILES | IC50 (HCT-116) [µM] | IC50 (HeLa) [µM] | IC50 (K562) [µM] | IC50 (HL-60) [µM]
1 | CC(=O)[C@H]1c2cc3c(-c4ccc(O)c5c(O)c6c(cc45)[C@H](C(C)=O)[C@@](C)(O)CC6=O)ccc(O)c3c(O)c2C(=O)C[C@]1(C)O | > 10 | > 10 | > 10 | > 10
2 | CC(=O)[C@H]1c2cc3ccc(-c4c5c(c(O)c6c(O)cccc46)C(=O)C[C@](C)(O)[C@H]5C(C)=O)c(O)c3c(O)c2C(=O)C[C@]1(C)O | > 10 | > 10 | > 10 | > 10
3 | CC(=O)[C@H]1c2c(c(O)c3c(O)cccc3c2-c2c3c(c(O)c4c(O)cccc24)C(=O)C[C@](C)(O)[C@H]3C(C)=O)C(=O)C[C@]1(C)O | > 10 | 1.8 | 5.1 | > 10
4 | CC(=O)[C@H]1c2cc3cccc(O)c3c(O)c2C(=O)C[C@]1(C)O | > 10 | > 10 | > 10 | > 10
5 | CC(=O)[C@H]1c2cc3c(-c4c5c(c(O)c6c(O)cccc46)C(=O)C[C@](C)(O)[C@H]5C(C)=O)ccc(O)c3c(O)c2C(=O)C[C@]1(C)O | > 10 | 5.1 | 10 | 6.2
6 | COc1cccc2c1C(=O)c1c(O)c3c(c(O)c1C2=O)C[C@@](O)(C(=O)CO)C[C@@H]3O[C@H]1C[C@H](N)[C@H](O)[C@H](C)O1 [DOXORUBICIN HYDROCHLORIDE] | – | – | 0.2 | –
